Test results from patent US20250188076A1, “SOLID STATE FORMS OF TOLEBRUTINIB AND OF TOLEBRUTINIB SALTS” (TEVA PHARMACEUTICAL INTERNATIONAL GMBH, priority 2022, published 2025).

Assay: Solubility comparison in water and aqueous acetate buffer at pH 4.5

## Tolebrutinib [Tolebrutinib Form CSI]
  solubility: < 200 µg/mL
